Experimental findings from patent publication US8110585B2, “Bicyclic compound and pharmaceutical use thereof” (Takeda Pharmaceutical Company Limited, priority 2007, dated 2012) are described below.

pIC50: −log10 of the molar value.

Data set [1] addresses T1, human melatonin 1 receptors (human MT1 receptors) (Homo sapiens, UniProt P48039).
T1 construct: expressed in transfected cells; membrane fraction
The data set is described as follows: Melatonin receptor binding inhibitory test, 2-[125I] Iodomelatonin, MT1. The settings on record: membrane fraction of CHO-hMelR7 cells, 25° C. for 2.5 hr, read-out: binding inhibitory activity as IC50 value for MT1. On the procedure: (§1) Melatonin Receptor Binding Inhibitory Test
(1) Preparation of CHO-hMelR7 Cells expressing Human Melatonin 1 Receptors
A cDNA fragment (SEQ ID NO: 1) encoding full-length of human melatonin 1 receptors (human MT1 receptors) was incorporated into expression vector pAKKO-111H (former name pAKKO1.11H; Biochim Biophys Acta. Vol. 1219(2), pp. 251-259, 1994) to give plasmid pAKKO-hMelR7 for animal cell expression. CHO/dhfr-cells (ATCC, #CRL-9096) were plated at a concentration of 0.3×10^6 cells/dish in a 6 cm culture dish (Becton Dickinson), and cultured under the conditions of 37° C., 5% CO2 for 48 hr. The cells were transfected with pAKKO-hMelR7 plasmid DNA (5 μg) using Cellphect Transfection Kit (Amersham, #27-9268-01). The transfected cells were cultured in Dulbecco's modified Eagle medium (DMEM) (Sigma, #D6046) containing 10% dialyzed FBS (Biowest, #S180D), 1× Non-Essential Amino Acid (Invitrogen, #11140-050) and 50 μg/mL Gentamycin (Invitrogen, #15750-060), and the cell line that stably expressed the plasmid gene was selected. By a receptor binding assay using 2-[^125I] Iodomelatonin, CHO-hMelR7 cell line showing specific binding of 2-[^125I] Iodomelatonin was selected from the obtained clones.
(§2) (3) Preparation of Cellular Membrane Fraction of CHO Cell (CHO-hMelR7 and CHO-hMT2) Stably Expressing Human MT1 and MT2 Receptors
(§3) CHO-hMelR7 and CHO-hMT2 cells were plated using Cellfactory (Nunc, #170009) under the conditions of 1×10^8 cells/2000 mL/flask. The cells were grown to confluent, and recovered by the following method. As the medium for CHO-hMelR7 and CHO-hMT2, MEM a containing 10% FBS and penicillin/streptomycin was used. […]
(§4) The medium was discarded, cells were washed twice with 200 mL of EDTA/PBS(−), 200 mL of EDTA/PBS(−) was further added, and the cells were stood still at room temperature for 20 min until they were released. The cells were recovered in four 50 mL tubes (Becton Dickinson, #352070), and centrifuged at 1,500 rpm for 10 min at 4° C. using a low speed cooling centrifuge (Hitachi, CF7D2). The supernatant was discarded, the pellets in the four tubes were suspended in 10 mL of PBS(−), and combined in one tube (Becton Dickinson, #352070). The mixture was further centrifuged at 1,500 rpm for 10 min at 4° C., and the obtained pellets were suspended in 20 mL of ice-cooled homogenizing buffer [10 mM NaHCO3, 5 mM EDTA, Protease inhibitor Complete (Roche), pH 7.4]. The cell suspension was homogenized 3 times using a polytron homogenizer at 20,000 rpm for 30 sec. The obtained homogenate was centrifuged (2,000 rpm, 10 min, 4° C.) using a low speed cooling centrifuge. The supernatant was recovered in an ultracentrifugation tube and ultracentrifuged (40,000 rpm, 60 min, 4° C.) using an ultracentrifuge (Beckman, L-90K). To the obtained pellets was added a suspending buffer [50 mM Tris-HCl, 1 mM EDTA, Protease inhibitor Complete (Roche), pH 7.4], and the pellets were suspended by pipetting. The protein concentration of this suspension was measured, diluted to 2 mg/mL to give cellular membrane fractions of CHO-hMelR7 and CHO-hMT2 cells. The membrane fractions were dispensed to 1.5 mL tubes (Eppendorf, #0030120.086) by 100 μL, preserved in a freezer (−80° C.) and used for a binding assay. Protein was quantified using BCA protein assay kit (Pierce) with BSA as the standard.
(§5) (4) Preparation of Membrane Fraction Suspension
(§6) Immediately before use, the membrane fractions of CHO-hMelR7 and CHO-hMT2 cells of the above-mentioned (3) were diluted 20-fold with assay buffer (50 mM Tris-HCl, pH 7.7).
(§7) (5) Preparation of 2-[^125I] Iodomelatonin Solution
(§8) 2-[^125I] Iodomelatonin (#NEX236, PerkinElmer) was diluted with the assay buffer to 400 pM for MT1 and 1 nM for MT2.
The assay buffer (80 μL) of the above-mentioned (4) was added to each well of a 96-well plate (type 3363, Corning). Then, a test compound (compound solution diluted with DMSO to 200-fold of the final measurement concentration) was added by 2 μL. […]

Data set [2] has as its target T2, human melatonin 2 receptors (human MT2 receptors) (Homo sapiens, UniProt P49286).
T2 construct: expressed in transfected cells; membrane fraction
T2 sequence (P49286 1-362): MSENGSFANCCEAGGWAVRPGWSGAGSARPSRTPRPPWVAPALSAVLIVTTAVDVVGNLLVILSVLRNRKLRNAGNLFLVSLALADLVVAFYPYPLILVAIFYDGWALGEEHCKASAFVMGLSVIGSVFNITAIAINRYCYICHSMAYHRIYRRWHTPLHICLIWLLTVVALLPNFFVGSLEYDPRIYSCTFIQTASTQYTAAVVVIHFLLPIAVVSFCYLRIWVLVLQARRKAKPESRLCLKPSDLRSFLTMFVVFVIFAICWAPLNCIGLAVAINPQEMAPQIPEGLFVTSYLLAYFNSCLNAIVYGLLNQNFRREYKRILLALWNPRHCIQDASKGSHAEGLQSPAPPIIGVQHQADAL
Kind of data set: Melatonin receptor binding inhibitory test, 2-[125I] Iodomelatonin, MT2. The following applies: membrane fraction of CHO-hMT2 cells, 25° C. for 2.5 hr, read-out: binding inhibitory activity as IC50 value for MT2. On the procedure:
as §1
(2) Preparation of CHO-hMT2 Cells Expressing Human Melatonin 2 Receptors
A cDNA fragment (SEQ ID NO: 2) encoding full-length of human melatonin 2 receptors (human MT2 receptors) was incorporated into expression vector pCMV-Script (Stratagene, #212220) to give the plasmid that was pCMV-human MT2 receptors expression vector for animal cell expression. CHO-K1 cells (ATCC, #CCL-61) were plated at the concentration of 1.5×10^5 cells/cm^2 in a 6 well plate (ASAHI TECHNO GLASS), and cultured under the conditions of 37° C., 5% CO2 for 24 hr. For gene transfection, solution obtained by blending pCMV-human MT2 receptors expression vector (1.9 μg), Lipofectamine Transfection Reagent (Invitrogen, #18324-012) (11.3 μL) and Minimum Essential Medium Eagle (MEM) medium (Sigma, M8042) (93.8 μL), and reacting at room temperature for 20 min was added to the cells per one well. The transfected cells were cultured in MEM medium containing 10% FBS (Life Technology) and 300 μg/mL Geneticin (GIBCO, #10131), and the cell line that stably expressed the plasmid gene was selected. By a receptor binding assay using 2-[^125I] Iodomelatonin, CHO-hMT2 cell line showing specific binding of 2-[^125I] Iodomelatonin was selected from the obtained clones.
as §2, §3, §4, §5, §6, §7, §8
The assay buffer (80 μL) of the above-mentioned (4) was added to each well of a 96-well plate (type 3363, Corning). […]

T1 sequence (P48039 whole entry): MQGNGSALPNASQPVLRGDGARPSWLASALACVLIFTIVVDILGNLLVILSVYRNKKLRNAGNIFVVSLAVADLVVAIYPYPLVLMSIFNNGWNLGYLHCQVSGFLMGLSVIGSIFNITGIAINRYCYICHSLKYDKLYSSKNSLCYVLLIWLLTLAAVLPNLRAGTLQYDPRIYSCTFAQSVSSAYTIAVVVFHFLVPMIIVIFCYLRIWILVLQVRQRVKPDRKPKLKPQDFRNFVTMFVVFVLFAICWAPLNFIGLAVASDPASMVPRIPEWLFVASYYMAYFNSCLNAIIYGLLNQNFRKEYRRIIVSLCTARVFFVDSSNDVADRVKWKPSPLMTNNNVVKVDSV

In the case of `CC(=O)NC[C@@H]1C[C@H]1c1cccc2nn(C)c(F)c12` (relative stereo) [Example 18, trans-N-{[2-(3-fluoro-2-methyl-2H-indazol-4-yl)cyclopropyl]methyl}acetamide], the melting point was 109 to 111 °C. For the same compound, the pIC50 in data set [1] is no less than 7.00. In addition, in data set [2], the pIC50 was no less than 7.00.
`CC(=O)NC[C@@H]1C[C@H]1c1c(F)ccc2nn(C)cc12` (relative stereo) [Example 23, trans-N-{[2-(5-fluoro-2-methyl-2H-indazol-4-yl)cyclopropyl]methyl}acetamide] returned a melting point of 157 to 159 °C. In addition, the pIC50 in data set [1] is no less than 7.00. Besides, in data set [2], the negative logarithm of the IC50 (pIC50) was no less than 7.00.
In turn, `CCC(=O)NC[C@@H]1C[C@H]1c1c(F)ccc2nn(C)cc12` (relative stereo) [Example 26, trans-N-{[2-(5-fluoro-2-methyl-2H-indazol-4-yl)cyclopropyl]methyl}propanamide] registered a melting point of 158 to 159 °C. The pIC50 in data set [1] is no less than 7.00. Further, the pIC50 in data set [2] is no less than 7.00.
Compound `CCCC(=O)NC[C@@H]1C[C@H]1c1cccn2nc(C)cc12` (relative stereo) [Example 45, trans-N-{[2-(2-methylpyrazolo[1,5-a]pyridin-4-yl)cyclopropyl]methyl}butanamide] returned a melting point of 82 to 84 °C. For the same compound, the pIC50 in data set [1] is no less than 7.00. For the same compound, the pIC50 in data set [2] is no less than 7.00.
For `Cc1cc2c([C@@H]3C[C@H]3CNC(=O)C(F)(F)F)cccn2n1` (relative stereo) [Example 46, trans-2,2,2-trifluoro-N-{[2-(2-methylpyrazolo[1,5-a]pyridin-4-yl)cyclopropyl]methyl}acetamide], the melting point was 136 to 138 °C. For the same compound, in data set [1], the pIC50 was no less than 7.00. Further, the negative-log IC50 (pIC50) in data set [2] is no less than 7.00.
Consider `Cc1cc2c([C@@H]3C[C@H]3CNC(=O)C3CC3)cccn2n1` (relative stereo) [Example 47, trans-N-{[2-(2-methylpyrazolo[1,5-a]pyridin-4-yl)cyclopropyl]methyl}cyclopropanecarboxamide], for which the melting point lay in the range of 133 to 135 °C. Moreover, in data set [1], the pIC50 is no less than 7.00. In data set [2], the pIC50 was no less than 7.00.
Compound `CCNC(=O)NC[C@@H]1C[C@H]1c1cccn2nc(C)cc12` (relative stereo) [Example 51, trans-N-ethyl-N′-{[2-(2-methylpyrazolo[1,5-a]pyridin-4-yl)cyclopropyl]methyl}urea] had a melting point of 108 to 110 °C. Moreover, in data set [1], the negative-log IC50 (pIC50) was no less than 7.00. In data set [2], the negative-log IC50 (pIC50) is no less than 7.00.
On to `CC(=O)NC[C@H]1C[C@@H]1c1cccc2nn(C)cc12` [Example 10, N-{[(1S,2S)-2-(2-methyl-2H-indazol-4-yl)cyclopropyl]methyl}acetamide], for which the melting point lay within 145 to 147 °C. For the same compound, the negative-log IC50 (pIC50) in data set [1] was no less than 7.00. Further, the pIC50 in data set [2] was no less than 7.00.
As for `CC(=O)NC[C@@H]1C[C@H]1c1cccc2nn(C)cc12` [Example 11, N-{[(1R,2R)-2-(2-methyl-2H-indazol-4-yl)cyclopropyl]methyl}acetamide], the melting point lay within 145 to 147 °C. Also, the pIC50 in data set [1] is no less than 7.00. Further, the pIC50 in data set [2] is no less than 7.00.
In turn, `CCC(=O)NC[C@H]1C[C@@H]1c1cccc2nn(C)cc12` [Example 12, N-{[(1S,2S)-2-(2-methyl-2H-indazol-4-yl)cyclopropyl]methyl}propanamide] gave a melting point of 79 to 80 °C. For the same compound, in data set [1], the pIC50 was no less than 7.00. The pIC50 in data set [2] was no less than 7.00.
Turning to `CCC(=O)NC[C@@H]1C[C@H]1c1cccc2nn(C)cc12` [Example 13, N-{[(1R,2R)-2-(2-methyl-2H-indazol-4-yl)cyclopropyl]methyl}propanamide], the melting point lay within 78 to 80 °C. Moreover, the pIC50 in data set [1] was no less than 7.00. Further, in data set [2], the pIC50 was no less than 7.00.
`CCn1cc2c(C3CC3CNC(C)=O)cccc2n1` (stereo not drawn) [Example 16, N-{[2-(2-ethyl-2H-indazol-4-yl)cyclopropyl]methyl}acetamide] yielded a melting point of 155 to 159 °C. The negative-log IC50 (pIC50) in data set [1] was no less than 7.00. Besides, in data set [2], the pIC50 was no less than 7.00.
`CCC(=O)NCC1CC1c1cccc2nn(CC)cc12` (stereo not drawn) [Example 17, N-{[2-(2-ethyl-2H-indazol-4-yl)cyclopropyl]methyl}propanamide]: the melting point was in the range of 114 to 115 °C. Besides, the pIC50 in data set [1] was no less than 7.00. For the same compound, the pIC50 in data set [2] is no less than 7.00.
In turn, `CC(=O)NC[C@@H]1C[C@H]1c1cccc2nn(C)c(F)c12` [Example 19, N-{[(1R,2R)-2-(3-fluoro-2-methyl-2H-indazol-4-yl)cyclopropyl]methyl}acetamide] registered a melting point of 138 to 139 °C. In addition, the pIC50 in data set [1] is no less than 7.00. Moreover, the pIC50 in data set [2] was no less than 7.00.
In turn, `CC(=O)NC[C@H]1C[C@@H]1c1c(F)ccc2nn(C)cc12` [Example 24, N-{[(1S,2S)-2-(5-fluoro-2-methyl-2H-indazol-4-yl)cyclopropyl]methyl}acetamide] came in with a melting point of 120 °C. Besides, the pIC50 in data set [1] was no less than 7.00. Besides, the negative logarithm of the IC50 (pIC50) in data set [2] is no less than 7.00.
Regarding `CC(=O)NC[C@@H]1C[C@H]1c1c(F)ccc2nn(C)cc12` [Example 25, N-{[(1R,2R)-2-(5-fluoro-2-methyl-2H-indazol-4-yl)cyclopropyl]methyl}acetamide], the melting point was found to be 120 °C. Also, the pIC50 in data set [1] is no less than 7.00. Also, the pIC50 in data set [2] is no less than 7.00.

In general, pIC50 refers to the negative decadic logarithm of the IC50, by convention in mol/L. For orientation: melting point means the temperature, or range, at which the solid turns liquid.
